Laboratory results reported in publication PMC7158214 (Clinical Pharmacology and Therapeutics, 2020).
Where “and” joins values, the source holds several entries; their conditions need not be identical. Identical values can stand only once. Like-named read-outs stand apart in the source and are kept apart here.

Experiments:
OATP1B [1] = assay: Nonlinear regression of AUCR^-1 vs rifampicin Cmax; type: in vivo, human; details: from AUCR based on AUC0-24h
OATP1B [2] = assay: Effect of rifampicin on plasma AUC0-24h of endogenous compounds; type: in vivo, human; details: for AUC0-24h Geometric Mean Ratio +RIF/Control (90% CI): +RIF600; for AUC0-24h Geometric Mean Ratio Control/Baseline (90% CI): probe cocktail vs placebo day
[3] = type: in vivo; details: human, plasma, po
OATP1B [4] = details: +RIF600
[5] = cited from earlier work

O=C(O)CCCCCCCCCCCCCCC(=O)O [HDA, hexadecanedioic acid]
fRIF (fraction sensitive to inhibition by rifampicin) (OATP1B [1]): 0.776 ± 0.093

C[C@H](CCC(=O)NCC(=O)O)[C@H]1CC[C@H]2[C@@H]3CC[C@@H]4C[C@H](OS(=O)(=O)O)CC[C@]4(C)[C@H]3CC[C@]12C [GLCA-S, glycolithocholate‐3‐sulfate]
AUC0-24h Geometric Mean Ratio +RIF/Control (90% CI) (OATP1B [2]): greater than 2

C[C@H](CCC(=O)O[C@@H]1O[C@H](C(=O)O)[C@@H](O)[C@H](O)[C@H]1O)[C@H]1CC[C@H]2[C@@H]3[C@H](O)C[C@@H]4C[C@H](O)CC[C@]4(C)[C@H]3CC[C@]12C [CDCA-24G, chenodeoxycholate‐24‐glucuronide]
AUC0-24h Geometric Mean Ratio Control/Baseline (90% CI) (OATP1B [2]): > 1.25 and 1.4 | fRIF (fraction sensitive to inhibition by rifampicin) (OATP1B [1]): 0.801 ± 0.124

C[C@H](CCC(=O)NCC(=O)O)[C@H]1CC[C@H]2[C@@H]3[C@H](O)C[C@@H]4C[C@H](O)CC[C@]4(C)[C@H]3C[C@H](O)[C@]12C [GCA, glycocholate]
AUC0-24h Geometric Mean Ratio Control/Baseline (90% CI) (OATP1B [2]): > 1.25

CO[C@H]1/C=C/O[C@@]2(C)Oc3c(C)c(O)c4c(O)c(c(/C=N/N5CCN(C)CC5)c(O)c4c3C2=O)NC(=O)/C(C)=C\C=C\[C@H](C)[C@H](O)[C@@H](C)[C@@H](O)[C@@H](C)[C@H](OC(C)=O)[C@@H]1C [rifampicin]
AUC(0-t) ([3]; 150 mg): 19.8 ± 1.2 µM·h | Cmax ([3]; 150 mg): 4.78 ± 0.29 µM | AUC(0-t) ([3]; 300 mg): 55.5 ± 3.4 µM·h | AUC(0-t) ([3]; 600 mg): 141 ± 9 µM·h | Cmax ([3]; 600 mg): 22.8 ± 2.6 µM

O=C(O)C[C@H](O)C[C@H](O)/C=C/c1c(C2CC2)nc2ccccc2c1-c1ccc(F)cc1 [Pitavastatin, pitavastatin, reference compound]
fRIF (fraction sensitive to inhibition by rifampicin) (OATP1B [1]): 0.810 ± 0.043 | AUC0-24h Geometric Mean Ratio +RIF/Control (90% CI) (OATP1B [4]): 4.0

C[C@H](CCC(=O)NCC(=O)O)[C@H]1CC[C@H]2[C@@H]3[C@H](O)C[C@@H]4C[C@H](O[C@@H]5O[C@H](C(=O)O)[C@@H](O)[C@H](O)[C@H]5O)CC[C@]4(C)[C@H]3CC[C@]12C [GCDCA-G, glycochenodeoxycholate‐3‐glucuronide]
AUC0-24h Geometric Mean Ratio +RIF/Control (90% CI) (OATP1B [2]): ~ 15 | fRIF (fraction sensitive to inhibition by rifampicin) (OATP1B [1]): 1 ± 0.08

C[C@H](CCC(=O)NCCS(=O)(=O)O)[C@H]1CC[C@H]2[C@@H]3CC[C@@H]4C[C@H](OS(=O)(=O)O)CC[C@]4(C)[C@H]3CC[C@]12C [TLCA-S, taurolithocholate‐3‐sulfate]
AUC0-24h Geometric Mean Ratio +RIF/Control (90% CI) (OATP1B [2]): greater than 2

C[C@H](CCC(=O)NCC(=O)O)[C@H]1CC[C@H]2[C@@H]3CC[C@@H]4C[C@H](OS(=O)(=O)O)CC[C@]4(C)[C@H]3C[C@H](O)[C@]12C [GDCA-S, glycodeoxycholate‐3‐sulfate]
AUC0-24h Geometric Mean Ratio +RIF/Control (90% CI) (OATP1B [2]): greater than 2

CCCCC(=O)N(Cc1ccc(-c2ccccc2-c2nnn[nH]2)cc1)[C@H](C(=O)O)C(C)C [Valsartan, valsartan, reference compound]
fRIF (fraction sensitive to inhibition by rifampicin) (OATP1B [1]): 0.831 ± 0.036 | AUC0-24h Geometric Mean Ratio +RIF/Control (90% CI) (OATP1B [4]): 5.5

direct bilirubins [D-BIL]
AUC0-24h Geometric Mean Ratio +RIF/Control (90% CI) (OATP1B [2]): 2.8 | fRIF (fraction sensitive to inhibition by rifampicin) (OATP1B [1]): 0.976 ± 0.180

C[C@H](CCC(=O)NCC(=O)O)[C@H]1CC[C@H]2[C@@H]3[C@H](O)C[C@@H]4C[C@H](O)CC[C@]4(C)[C@H]3CC[C@]12C [GCDCA, glycochenodexoxycholate]
AUC0-24h Geometric Mean Ratio Control/Baseline (90% CI) (OATP1B [2]): > 1.25

CC(C)c1nc(N(C)S(C)(=O)=O)nc(-c2ccc(F)cc2)c1/C=C/[C@@H](O)C[C@@H](O)CC(=O)O [Rosuvastatin, rosuvastatin]
fRIF (fraction sensitive to inhibition by rifampicin) (OATP1B [1]): 0.702 ± 0.122 | contribution of urinary excretion to the systemic elimination [5]: ca. 20% | AUC0-24h Geometric Mean Ratio +RIF/Control (90% CI) (OATP1B [4]): 2.5
